SMILES strings stand for the structures.

In one test the test system is MIN6B1 cell. The test is described as follows: Assay for promoting activity on insulin secretion. In kind it is cell-based, mouse. Conditions: 10 μM test compound, KRB-HEPES with 16.8 mM glucose, 37° C., 22 minutes; relative to DMSO = 100%. On the procedure: (1) Assay for Promoting Activity on Insulin Secretion
In this assay, promoting activities on insulin secretion of the test compounds were studied using MIN6B1 cell, which was a strain of mouse pancreatic β-cells, and glibenclamide, which was a commercially available insulin secretagogue, as a reference compound. The assay procedure is given below.
MIN6B1 cells were seeded on a 48-well plate at a concentration of 1×10^5 cells/well (0.25 ml) (The medium was prepared by adding FCS (fetal calf serum) to DMEM (Dulbecco's Modified Eagle Medium) containing 25 mM glucose such that the FCS concentration became 10%). After two days, the medium was suctioned by an aspirator, each well washed four times with 0.2 ml of KRE-HEPES buffer [Kregs-Ringer-bicarbonate-N-2-hydroxyethylpiperazine-N′-2-ethanesulfonic acid; 130 mM NaCl, 4.7 mM KCl, 1.2 mM KH2PO4, 1.2 mM MgCl2.6H2O, 0.25 mM CaCl2.2H2O, 2.5 mM NaHCO3, 0.5% BSA, and 10 mM N-2-hydroxyethylpiperazine-N′-2-ethanesulfonic acid (pH 7.4)] containing 2.8 mM glucose warmed to 37° C., 0.2 ml of said buffer was again added, and the cells were incubated at 37° C. for 30 to 60 minutes. […] The samples were pipetted and diluted by 25 to 51 times, and the insulin concentrations were analyzed using an insulin assay kit (Rat Insulin [^125I] Biotrak Assay System with Magnetic Separation; Amersham BioScience K.K.). […]

Another test concerns ICR mice. Briefly: Oral glucose tolerance test on normal mouse. In kind it is in vivo. To be noted: at 30 minutes after glucose loading, relative to control group. How it is done:
(2) Oral Glucose Tolerance Test on Normal Mouse
In this assay, preventive activities of test compounds against hyperglycemia following glucose loading were examined using normal mice and nateglinide, a commercially available oral anti-hyperglycemic agent, as a reference compound. The assay procedure is given below.
ICR mice (male, 6 weeks old) that had been preliminary bred for one week were fasted for 18 to 20 hours to use as test animals. Each test compound was dissolved in 0.5% methylcellulose solution and orally administered at 3 mg/kg (10 mg/kg for nateglinide) before glucose loading. Timing to administer the test compound was selected to be optimal for each test compound, which was 10 minutes before glucose loading for the compounds of the present invention or 30 minutes before glucose loading for nateglinide, which was a reference compound. The hypoglycemic rate (%) at 30 minutes after glucose loading was measured relative to the control group.

For the compound `COc1ccc(Cl)cc1C(=O)NCCc1ccc(S(=O)(=O)NC(=O)NC2CCCCC2)cc1` [Glibenclamide, glibenclamide], the “Promotion activity on insulin secretion, %” value in the test on MIN6B1 cell is given as 122%.

With `CC(C)[C@H]1CC[C@H](C(=O)N[C@H](Cc2ccccc2)C(=O)O)CC1` [Nateglinide, nateglinide], the “Hypoglycemic rate, %” value in the test on ICR mice (10 mg/kg orally, 30 minutes before glucose loading) is reported as 26%.

Consider `Fc1cc(-c2nc(N3CCSC3)c3sccc3n2)c(F)cc1Cl` [Example 99], for which the “Hypoglycemic rate, %” value in the test with ICR mice (3 mg/kg orally, 10 minutes before glucose loading) was 36%.

The record behind these values is patent US7557112B2, “Aromatic-ring-fused pyrimidine derivative” (Astellas Pharma Inc., priority 2004, dated 2009).
